Target: T1, trkA (Rattus norvegicus, UniProt P35739)
T1 construct: are rat pheochromocytoma cells that bear trkA; host or cells: PC12 rat pheochromocytoma cells
Assay: inhibition of NGF-stimulated trk autophosphorylation (tyrosine phosphorylation) in PC12 cells, anti-phosphotyrosine Western blot; as to trk 100 nM (inhibition of phosphorylation): key: +: Inhibited phosphorylation; -: Did not inhibit phosphorylation; as to trk 500 nM (inhibition of phosphorylation): key: +: Inhibited phosphorylation; -: Did not inhibit phosphorylation
Type: cell-based
Conditions: for trk 100 nM (inhibition of phosphorylation) / phosphorylation response (FIG. 1, spot): 100 nM compound; for trk 100 nM (inhibition of phosphorylation) / trk 500 nM (inhibition of phosphorylation): NGF 50 ng/ml; for trk 500 nM (inhibition of phosphorylation): 500 nM compound; for phosphorylation response (FIG. 1, spot): NGF, Western blot FIG. 1
Method: Candidate compounds for the inhibition of prostate cell proliferation were selected according to their ability to inhibit the tyrosine kinase activity associated with the trks.
PC12 cells (ATCC #CRL1721) are rat pheochromocytoma cells that bear trkA and differentiate into sympathetic neurons when treated with NGF. […] Cells were incubated at 37° C. in a humidified atmosphere of 10% CO2 and 90% air. […] The cells in each culture were disrupted and cell lysates were prepared by standard techniques known to those skilled in the art. Each lysate was incubated with anti-trk antibody whereby immune complexes were formed. […] The immune complexes were collected on Protein A-Sepharose beads, separated by SDS-polyacrylamide gel electrophoresis (SDS-PAGE), and transferred to polyvinylidene difluoride (PVDF) membranes (Millipore Corp., Bedford, Mass.), using techniques well known to those skilled in the art. The membranes were incubated with anti-phosphotyrosine antibody, which binds to the tyrosine phosphorylated trks, but not to the un-phosphorylated form of trks. Proteins bound to anti-phosphotyrosine antibody were visualized with enhanced chemiluminescence (ECL, Amersham), and are shown as dark "spots" in FIG. 1.
Measurement of the autophosphorylation of trk provides a good index of trk tyrosine kinase activity, and thereby of trk stimulation.
Inhibition was indicated by the absence of a spot migrating with the trk marker shown at the left side of the figure. Partial inhibition was indicated by a spot of reduced size.

T1 sequence (P35739 33-799): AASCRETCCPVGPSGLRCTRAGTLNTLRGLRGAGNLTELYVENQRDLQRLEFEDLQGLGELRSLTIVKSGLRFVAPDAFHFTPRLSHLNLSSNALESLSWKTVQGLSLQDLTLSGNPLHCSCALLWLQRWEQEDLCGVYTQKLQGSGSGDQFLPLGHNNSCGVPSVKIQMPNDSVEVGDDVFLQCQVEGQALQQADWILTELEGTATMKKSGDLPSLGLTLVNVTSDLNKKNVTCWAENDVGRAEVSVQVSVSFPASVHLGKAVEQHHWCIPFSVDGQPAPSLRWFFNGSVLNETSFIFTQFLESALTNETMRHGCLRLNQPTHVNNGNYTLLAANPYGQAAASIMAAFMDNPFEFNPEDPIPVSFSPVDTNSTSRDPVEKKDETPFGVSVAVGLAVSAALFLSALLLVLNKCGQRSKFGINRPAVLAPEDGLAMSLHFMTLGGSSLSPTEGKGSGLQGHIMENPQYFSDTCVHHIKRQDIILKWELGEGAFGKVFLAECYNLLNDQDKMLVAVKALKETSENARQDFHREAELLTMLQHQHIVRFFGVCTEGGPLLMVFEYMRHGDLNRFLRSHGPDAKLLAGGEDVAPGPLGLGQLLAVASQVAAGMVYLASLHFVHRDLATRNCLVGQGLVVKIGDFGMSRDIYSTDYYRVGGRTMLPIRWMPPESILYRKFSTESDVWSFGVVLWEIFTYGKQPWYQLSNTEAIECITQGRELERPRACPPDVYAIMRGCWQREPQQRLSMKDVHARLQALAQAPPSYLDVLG

Row | SMILES | trk 100 nM (inhibition of phosphorylation) | trk 500 nM (inhibition of phosphorylation) | phosphorylation response (FIG. 1, spot)
1 | CC12OC(CC1O)n1c3ccccc3c3c4c(c5c6ccccc6n2c5c31)CNC4=O (stereo not drawn) [Compound I-3] | + |  | 
2 | CC12OC(CC1(O)C(N)=O)n1c3ccccc3c3c4c(c5c6ccccc6n2c5c31)CNC4=O (stereo not drawn) [Compound I-4] | + | + | 
3 | CC(=O)OCC1(O)CC2OC1(C)n1c3ccccc3c3c4c(c5c6ccccc6n2c5c31)C(=O)NC4 (stereo not drawn) [Compound I-6] | + |  | 
4 | CC12OC(CC13CNC(=O)O3)n1c3ccccc3c3c4c(c5c6ccccc6n2c5c31)CNC4=O (stereo not drawn) [Compound I-7] | + |  | absent (no spot seen)
5 | CCNC(=O)C1(O)CC2OC1(C)n1c3ccccc3c3c4c(c5c6ccccc6n2c5c31)C(=O)NC4 (stereo not drawn) [Compound I-9] | + |  | absent (no spot seen)
6 | CCCNC(=O)C1(O)CC2OC1(C)n1c3ccccc3c3c4c(c5c6ccccc6n2c5c31)C(=O)NC4 (stereo not drawn) [Compound I-10] | + |  | 
7 | CC12OC(CC1(O)C(=O)N1CCOCC1)n1c3ccccc3c3c4c(c5c6ccccc6n2c5c31)CNC4=O (stereo not drawn) [Compound I-11] | + |  | 
8 | CC1(C)OCC2(CC3OC2(C)n2c4ccccc4c4c5c(c6c7ccccc7n3c6c42)C(=O)NC5)O1 (stereo not drawn) [Compound I-13] | + | + | 
9 | CC12OC(CC1(O)C=NNC(N)=O)n1c3ccccc3c3c4c(c5c6ccccc6n2c5c31)CNC4=O (stereo not drawn) [Compound I-14] | + |  | 
10 | CC12OC(CC1(O)CNC(=O)[C@@H]1CCCN1)n1c3ccccc3c3c4c(c5c6ccccc6n2c5c31)CNC4=O (stereo partly drawn) [Compound I-17] | - | + | 
11 | CC12OC(CC1(O)CNC(=O)[C@@H](N)CO)n1c3ccccc3c3c4c(c5c6ccccc6n2c5c31)CNC4=O (stereo partly drawn) [Compound I-18] | + |  | 
12 | CC12OC(CC1(O)CN=[N+]=[N-])n1c3ccccc3c3c4c(c5c6ccccc6n2c5c31)CNC4=O (stereo not drawn) [Compound I-21] | - | + | 
13 | COC(=O)C1(O)CC2OC1(C)n1c3ccccc3c3c4c(c5c6cc(Br)ccc6n2c5c31)C(=O)NC4 (stereo not drawn) [Compound I-23] | - | + | 
14 | CC(=O)NCC1(O)CC2OC1(C)n1c3ccccc3c3c4c(c5c6ccccc6n2c5c31)C(=O)NC4 (stereo not drawn) [Compound I-24] | + |  | 
15 | CN(C)C(=O)C1(O)CC2OC1(C)n1c3ccccc3c3c4c(c5c6ccccc6n2c5c31)C(=O)NC4 (stereo not drawn) [Compound I-25] | + |  | 
16 | CC12OC(CC1(O)C(=O)NO)n1c3ccccc3c3c4c(c5c6ccccc6n2c5c31)CNC4=O (stereo not drawn) [Compound I-26] | + |  | 
17 | COC(=O)C1(O)CC2OC1(C)n1c3ccccc3c3c4c(c5c6cc(NC(=O)Nc7ccccc7)ccc6n2c5c31)C(=O)NC4 (stereo not drawn) [Compound I-27] | - | + | 
18 | CC12OC(CC1(O)C=NO)n1c3ccccc3c3c4c(c5c6ccccc6n2c5c31)CNC4=O (stereo not drawn) [Compound I-28] | + |  | 
19 | CC12OC(CC1(O)C=NNC(=N)N)n1c3ccccc3c3c4c(c5c6ccccc6n2c5c31)CNC4=O (stereo not drawn) [Compound I-29] | - | + | 
20 | CC12OC(CC1(O)C=NNC1=NCCN1)n1c3ccccc3c3c4c(c5c6ccccc6n2c5c31)CNC4=O (stereo not drawn) [Compound I-30] | - | + | 

— patent publication US5654427A, “Indolocarbazole derivatives to treat a pathological condition of the prostate” (Kyowa Hakko Kogyo Co., Ltd., priority 1995, dated 1997)
